Measured values from US8063071B2 (GlaxoSmithKline, LLC, priority 2007, dated 2011).
Counter-ions that a name gives are not always drawn.

What was measured:
[1] = tested on: human monocyte stimulated cytokine production (TNF-α); experiment: Monocyte assay (LPS-stimulated TNF-α production); assay type: cell-based; conditions: for IC50: 24 h, 200 ng/mL LPS, TNF-α by ELISA; for inhibition at 0.3 µM: read-out: inhibition at 300 nM in the monocyte assay
Procedure, shortened: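 TNF-α release was measured by ELISA after 24 hrs at 37 C. Cells were stimulated with 200 ng/mL E. coli LPS, with compound added 30 minutes beforehand (0.1% DMSO vehicle). Cells were Ficoll/MACS-isolated CD14+ human monocytes adhered at 1×10^6 cells/mL, and viability was checked by trypan blue.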

[2] = molecular target: T1, Recombinant human IKKβ (residues 1-737) (Homo sapiens, UniProt O14920); experiment: IKK2 assay (TR-FRET); assay type: biochemical; conditions: ATP 1 μM final, read-out: pIC50 against IKK2 (converted)
T1 construct: Recombinant human IKKβ (residues 1-737); GST (C); made in house
T1 sequence (O14920 1-737): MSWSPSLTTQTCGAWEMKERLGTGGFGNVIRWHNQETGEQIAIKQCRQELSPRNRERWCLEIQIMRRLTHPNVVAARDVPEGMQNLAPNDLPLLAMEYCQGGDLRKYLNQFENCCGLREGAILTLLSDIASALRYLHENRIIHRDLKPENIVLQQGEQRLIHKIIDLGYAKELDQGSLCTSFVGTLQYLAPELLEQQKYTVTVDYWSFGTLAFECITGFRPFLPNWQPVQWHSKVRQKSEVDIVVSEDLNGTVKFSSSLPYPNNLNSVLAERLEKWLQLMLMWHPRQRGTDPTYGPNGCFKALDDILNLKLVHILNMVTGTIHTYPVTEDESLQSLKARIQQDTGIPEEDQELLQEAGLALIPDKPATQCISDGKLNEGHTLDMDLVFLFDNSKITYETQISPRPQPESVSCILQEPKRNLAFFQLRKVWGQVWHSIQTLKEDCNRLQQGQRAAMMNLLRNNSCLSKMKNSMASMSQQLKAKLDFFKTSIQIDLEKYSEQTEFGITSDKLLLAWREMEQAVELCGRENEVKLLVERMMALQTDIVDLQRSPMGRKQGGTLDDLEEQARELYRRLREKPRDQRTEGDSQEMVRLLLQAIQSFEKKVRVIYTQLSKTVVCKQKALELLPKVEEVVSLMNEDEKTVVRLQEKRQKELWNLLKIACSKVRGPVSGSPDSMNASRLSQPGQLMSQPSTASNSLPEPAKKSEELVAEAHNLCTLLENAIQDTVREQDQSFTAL
Procedure, shortened: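 TR-FRET readout (665 nm over 620 nm Eu reference) of GST-IB Ser32/36 phosphorylation after 60 min detection. Reaction: 1 μM ATP, 25 nM substrate, 0.5-5 nM GST-fused IKKβ 1-737 from baculovirus, pH 7.4 HEPES buffer, 1.7% DMSO, 15 min room temperature, EDTA-terminated.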

| Structure (SMILES) | IC50 [1] [µM] | IC50 [2] [µM] | inhibition at 0.3 µM [1] [%] |
| --- | --- | --- | --- |
| CCS(=O)(=O)N1CCC(c2c[nH]c3c(C(N)=O)cc(-c4cc(CNCCOC)ccc4F)cc23)CC1 [Example 342, 3-[1-(ethylsulfonyl)-4-piperidinyl]-5-[2-fluoro-5-({[2-(methyloxy)ethyl]amino}methyl)phenyl]-1H-indole-7-carboxamide trifluoroacetate] | ≤ 1.5 | ≤ 10 | – |
| CCS(=O)(=O)N1CCC(c2c[nH]c3c(C(N)=O)cc(-c4ccc(N(C)C)cc4)cc23)CC1 [Example 165, 5-[4-(dimethylamino)phenyl]-3-[1-(ethylsulfonyl)-4-piperidinyl]-1H-indole-7-carboxamide] | > 1 | ≤ 10 | – |
| CCS(=O)(=O)N1CCC(c2c[nH]c3c(C(N)=O)cc(-c4cc(CNC)ccc4F)cc23)CC1 [Example 333, 3-[1-(ethylsulfonyl)-4-piperidinyl]-5-{2-fluoro-5-[(methylamino)methyl]phenyl}-1H-indole-7-carboxamide trifluoroacetate] | ≤ 1.5 | ≤ 10 | – |
| CCS(=O)(=O)N1CCC(c2c[nH]c3c(C(N)=O)cc(-c4cccc(CN[C@@H](CO)C(C)C)c4)cc23)CC1 [Example 18, 3-[1-(ethylsulfonyl)-4-piperidinyl]-5-[3-({[(1R)-1-(hydroxymethyl)-2-methylpropyl]amino}methyl)phenyl]-1H-indole-7-carboxamide] | ≤ 1.5 | ≤ 10 | – |
| CCS(=O)(=O)N1CCC(c2c[nH]c3c(C(N)=O)cc(-c4csc(CN(C)CC(C)C)c4)cc23)CC1 [Example 73, 3-[1-(ethylsulfonyl)-4-piperidinyl]-5-(5-{[methyl(2-methylpropyl)amino]methyl}-3-thienyl)-1H-indole-7-carboxamide trifluoroacetate] | ≤ 1.5 | ≤ 10 | – |
| CCS(=O)(=O)N1CCC(c2c[nH]c3c(C(N)=O)cc(-c4cc(CNC)cs4)cc23)CC1 [Example 208, 3-[1-(ethylsulfonyl)-4-piperidinyl]-5-{4-[(methylamino)methyl]-2-thienyl}-1H-indole-7-carboxamide trifluoroacetate] | ≤ 1.5 | ≤ 10 | – |
| CCS(=O)(=O)N1CCC(c2c[nH]c3c(C(N)=O)cc(-c4cccc(CNS(=O)(=O)c5cn(C)c(C)n5)c4)cc23)CC1 [Example 378, 5-[3-({[(1,2-dimethyl-1H-imidazol-4-yl)sulfonyl]amino}methyl)phenyl]-3-[1-(ethylsulfonyl)-4-piperidinyl]-1H-indole-7-carboxamide] | > 1 | ≤ 10 | – |
| CCS(=O)(=O)N1CCC(c2c[nH]c3c(C(N)=O)cc(-c4csc(CN(C)C5CCS(=O)(=O)C5)c4)cc23)CC1 (stereo not shown) [Example 436, 5-(5-{[(1,1-dioxidotetrahydro-3-thienyl)(methyl)amino]methyl}-3-thienyl)-3-[1-(ethylsulfonyl)-4-piperidinyl]-1H-indole-7-carboxamide trifluoroacetate] | – | ≤ 10 | 0 to 60 |
| CCS(=O)(=O)N1CCC(c2c[nH]c3c(C(N)=O)cc(-c4ccc(CNC(=O)Cc5cccs5)cc4)cc23)CC1 [Example 160, 3-[1-(ethylsulfonyl)-4-piperidinyl]-5-(4-{[(2-thienylacetyl)amino]methyl}phenyl)-1H-indole-7-carboxamide] | ≤ 1.5 | ≤ 10 | – |
| CCS(=O)(=O)N1CCC(c2c[nH]c3c(C(N)=O)cc(-c4cc(F)cc(CN[C@H](C)C(C)C)c4)cc23)CC1 [Example 315, 5-[3-({[(1R)-1,2-dimethylpropyl]amino}methyl)-5-fluorophenyl]-3-[1-(ethylsulfonyl)-4-piperidinyl]-1H-indole-7-carboxamide trifluoroacetate] | ≤ 1.5 | ≤ 10 | – |
| CCCNc1ccc(-c2cc(C(N)=O)c3[nH]cc(C4CCN(S(=O)(=O)CC)CC4)c3c2)cn1 [Example 227, 3-[1-(ethylsulfonyl)-4-piperidinyl]-5-[6-(propylamino)-3-pyridinyl]-1H-indole-7-carboxamide trifluoroacetate] | ≤ 1.5 | ≤ 10 | – |
| CCS(=O)(=O)N1CCC(c2c[nH]c3c(C(N)=O)cc(-c4ccc(CNC)s4)cc23)CC1 [Example 103, 3-[1-(ethylsulfonyl)-4-piperidinyl]-5-{5-[(methylamino)methyl]-2-thienyl}-1H-indole-7-carboxamide] | ≤ 1.5 | ≤ 10 | – |
| CCS(=O)(=O)N1CCC(c2c[nH]c3c(C(N)=O)cc(-c4csc(CN5CCC[C@H]5COC)c4)cc23)CC1 [Example 95, 3-[1-(ethylsulfonyl)-4-piperidinyl]-5-[5-({(2S)-2-[(methyloxy)methyl]-1-pyrrolidinyl}methyl)-3-thienyl]-1H-indole-7-carboxamide] | ≤ 1.5 | ≤ 10 | – |

Now from value to compound, other results behind:

| IC50 [1] [µM] | IC50 [2] [µM] | Structure (SMILES) | inhibition at 0.3 µM [1] [%] |
| --- | --- | --- | --- |
| – | ≤ 10 | CCSCCN(C)Cc1cc(-c2cc(C(N)=O)c3[nH]cc(C4CCN(S(=O)(=O)CC)CC4)c3c2)cs1 [Example 430, 3-[1-(ethylsulfonyl)-4-piperidinyl]-5-(5-{[[2-(ethylthio)ethyl](methyl)amino]methyl}-3-thienyl)-1H-indole-7-carboxamide] | 0 to 60 |
| > 1 | ≤ 10 | CCN(CC)Cc1ccc(-c2cc(C(N)=O)c3[nH]cc(C4CCN(S(=O)(=O)CC)CC4)c3c2)cc1 [Example 147, 5-{4-[(diethylamino)methyl]phenyl}-3-[1-(ethylsulfonyl)-4-piperidinyl]-1H-indole-7-carboxamide] | – |
| ≤ 1.5 | ≤ 10 | CCS(=O)(=O)N1CCC(c2c[nH]c3c(C(N)=O)cc(-c4cc(C#N)cc(CN(C)C)c4)cc23)CC1 [Example 358, 5-{3-cyano-5-[(dimethylamino)methyl]phenyl}-3-[1-(ethylsulfonyl)-4-piperidinyl]-1H-indole-7-carboxamide trifluoroacetate] | – |
| ≤ 1.5 | ≤ 10 | CCS(=O)(=O)N1CCC(c2c[nH]c3c(C(N)=O)cc(-c4ccc(CN[C@H](C)CO)cc4)cc23)CC1 [Example 151, 3-[1-(ethylsulfonyl)-4-piperidinyl]-5-[4-({[(1R)-2-hydroxy-1-methylethyl]amino}methyl)phenyl]-1H-indole-7-carboxamide trifluoroacetate] | – |
| ≤ 1.5 | ≤ 10 | CCS(=O)(=O)N1CCC(c2c[nH]c3c(C(N)=O)cc(-c4coc(CNCC5CCCC5)c4)cc23)CC1 [Example 246, 5-(5-{[(cyclopentylmethyl)amino]methyl}-3-furanyl)-3-[1-(ethylsulfonyl)-4-piperidinyl]-1H-indole-7-carboxamide trifluoroacetate] | – |
| > 1 | ≤ 10 | CCS(=O)(=O)N1CCC(c2c[nH]c3c(C(N)=O)cc(-c4cccc(CNC(=O)c5cccn5C)c4)cc23)CC1 [Example 365, 3-[1-(ethylsulfonyl)-4-piperidinyl]-5-[3-({[(1-methyl-1H-pyrrol-2-yl)carbonyl]amino}methyl)phenyl]-1H-indole-7-carboxamide] | – |
| ≤ 1.5 | ≤ 10 | CCS(=O)(=O)N1CCC(c2c[nH]c3c(C(N)=O)cc(-c4csc(CN(C)CC(N)=O)c4)cc23)CC1 [Example 44, 5-(5-{[(2-amino-2-oxoethyl)(methyl)amino]methyl}-3-thienyl)-3-[1-(ethylsulfonyl)-4-piperidinyl]-1H-indole-7-carboxamide trifluoroacetate] | – |
| ≤ 1.5 | ≤ 10 | CCS(=O)(=O)N1CCC(c2c[nH]c3c(C(N)=O)cc(-c4csc(CN5CCC[C@@H]5C)c4)cc23)CC1 [Example 217, 3-[1-(ethylsulfonyl)-4-piperidinyl]-5-(5-{[(2S)-2-methyl-1-pyrrolidinyl]methyl}-3-thienyl)-1H-indole-7-carboxamide] | – |
| – | ≤ 10 | CC(C)S(=O)(=O)N1CCC(c2c[nH]c3c(C(N)=O)cc(-c4csc(CN5CCC[C@@H]5C(N)=O)c4)cc23)CC1 [Example 429, 5-(5-{[(2R)-2-(aminocarbonyl)-1-pyrrolidinyl]methyl}-3-thienyl)-3-[1-[(1-methylethyl)sulfonyl]-4-piperidinyl]-1H-indole-7-carboxamide] | 0 to 60 |
| – | ≤ 10 | CCS(=O)(=O)N1CCC(c2c[nH]c3c(C(N)=O)cc(-c4csc(CNCC(C)C)n4)cc23)CC1 [Example 352, 3-[1-(ethylsulfonyl)-4-piperidinyl]-5-(2-{[(2-methylpropyl)amino]methyl}-1,3-thiazol-4-yl)-1H-indole-7-carboxamide trifluoroacetate] | 0 to 60 |
